Results taken from PubChem BioAssay AID1963850 (Molecular Pharmacology Branch, DTP, NCI, 2024).

Test system: 192522-019-R-J2-PDC complex tumor spheroid viability
Assay: Anticancer human tumor 192522-019-R-J2-PDC patient-derived colon adenocarcinoma cell line growth inhibition [POLQ]
Settings: for IC50: curve of first compound; for viability, T/C: stronger effect = lower value
Outline: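 Patient-derived tumour cells were co-cultured with HUVEC and mesenchymal stem cells as multicellular spheroids at 37 °C. They were treated with POLQ inhibitors (novobiocin, ART-558, RP6685) alone or combined with other agents. Top concentrations were at or near clinical Cmax (otherwise 10 microM; SN-38 at 1 microM), decreasing in half-log steps.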

[1] = second compound 0.0316 µM, first compound 0.00316 µM
[2] = second compound 0.0316 µM, first compound 0.01 µM
[3] = second compound 0.0316 µM, first compound 0.0316 µM
[4] = second compound 0.0316 µM, first compound 0.1 µM
[5] = second compound 0.0316 µM, first compound 0.316 µM
[6] = second compound 0.0316 µM, first compound 1 µM
[7] = second compound 0.1 µM, first compound 0.00316 µM
[8] = second compound 0.1 µM, first compound 0.01 µM
[9] = second compound 0.1 µM, first compound 0.0316 µM
[10] = second compound 0.1 µM, first compound 0.1 µM
[11] = second compound 0.1 µM, first compound 0.316 µM
[12] = second compound 0.1 µM, first compound 1 µM
[13] = second compound 0.316 µM, first compound 0.00316 µM
[14] = second compound 0.316 µM, first compound 0.01 µM
[15] = second compound 0.316 µM, first compound 0.0316 µM
[16] = second compound 0.316 µM, first compound 0.1 µM
[17] = second compound 0.316 µM, first compound 0.316 µM
[18] = second compound 0.316 µM, first compound 1 µM
[19] = second compound 1 µM, first compound 0.00316 µM
[20] = second compound 1 µM, first compound 0.01 µM
[21] = second compound 1 µM, first compound 0.0316 µM
[22] = second compound 1 µM, first compound 0.1 µM
[23] = second compound 1 µM, first compound 0.316 µM
[24] = second compound 1 µM, first compound 1 µM
[25] = second compound 3.16 µM, first compound 0.00316 µM
[26] = second compound 3.16 µM, first compound 0.01 µM
[27] = second compound 3.16 µM, first compound 0.0316 µM
[28] = second compound 3.16 µM, first compound 0.1 µM
[29] = second compound 3.16 µM, first compound 0.316 µM
[30] = second compound 3.16 µM, first compound 1 µM
[31] = second compound 10 µM, first compound 0.00316 µM
[32] = second compound 10 µM, first compound 0.01 µM
[33] = second compound 10 µM, first compound 0.0316 µM
[34] = second compound 10 µM, first compound 0.1 µM
[35] = second compound 10 µM, first compound 0.316 µM
[36] = second compound 10 µM, first compound 1 µM
[37] = second compound 0.0316 µM, first compound 3.16 µM
[38] = second compound 0.0316 µM, first compound 10 µM
[39] = second compound 0.1 µM, first compound 3.16 µM
[40] = second compound 0.1 µM, first compound 10 µM
[41] = second compound 0.316 µM, first compound 3.16 µM
[42] = second compound 0.316 µM, first compound 10 µM
[43] = second compound 1 µM, first compound 3.16 µM
[44] = second compound 1 µM, first compound 10 µM
[45] = second compound 3.16 µM, first compound 3.16 µM
[46] = second compound 3.16 µM, first compound 10 µM
[47] = second compound 10 µM, first compound 3.16 µM
[48] = second compound 10 µM, first compound 10 µM
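Further: spheroids exposed to drugs for seven days before reading.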
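Wherever viability, T/C is given: 100% = DMSO vehicle control viability in luminescence.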

## C=CCn1c(=O)c2cnc(Nc3ccc(N4CCN(C)CC4)cc3)nc2n1-c1cccc(C(C)(C)O)n1 + Nc1ccc(C#CCN(C(=O)Cc2ncc(C(F)(F)F)cc2C(F)(F)F)c2ccc(F)cc2)nn1
Second compound 0.0316 µM
  IC50: 0.732 µM
Second compound 0.1 µM
  IC50: 0.757 µM
Second compound 0.316 µM
  IC50: 0.799 µM
Second compound 1 µM
  IC50: 0.778 µM
Second compound 3.16 µM
  IC50: 0.901 µM
Second compound 10 µM
  IC50: 0.833 µM
[1]
  viability, T/C: 104%
[2]
  viability, T/C: 103%
[3]
  viability, T/C: 93%
[4]
  viability, T/C: 91.8%
[5]
  viability, T/C: 92.4%
[6]
  viability, T/C: 34.1%
[7]
  viability, T/C: 107%
[8]
  viability, T/C: 103%
[9]
  viability, T/C: 97.5%
[10]
  viability, T/C: 96.6%
[11]
  viability, T/C: 93.2%
[12]
  viability, T/C: 35.9%
[13]
  viability, T/C: 105%
[14]
  viability, T/C: 97.4%
[15]
  viability, T/C: 92.3%
[16]
  viability, T/C: 99.8%
[17]
  viability, T/C: 93%
[18]
  viability, T/C: 39.5%
[19]
  viability, T/C: 103%
[20]
  viability, T/C: 108%
[21]
  viability, T/C: 102%
[22]
  viability, T/C: 95.2%
[23]
  viability, T/C: 89.7%
[24]
  viability, T/C: 39%
[25]
  viability, T/C: 108%
[26]
  viability, T/C: 101%
[27]
  viability, T/C: 104%
[28]
  viability, T/C: 94.8%
[29]
  viability, T/C: 97.8%
[30]
  viability, T/C: 45.3%
[31]
  viability, T/C: 112%
[32]
  viability, T/C: 113%
[33]
  viability, T/C: 110%
[34]
  viability, T/C: 106%
[35]
  viability, T/C: 98.5%
[36]
  viability, T/C: 40.2%

## COc1cccc(OCCCN)c1-c1cc(Nc2cnc(C#N)cn2)n[nH]1 + Nc1ccc(C#CCN(C(=O)Cc2ncc(C(F)(F)F)cc2C(F)(F)F)c2ccc(F)cc2)nn1
Second compound 0.0316 µM
  IC50: 0.0269 µM
Second compound 0.1 µM
  IC50: 0.0257 µM
Second compound 0.316 µM
  IC50: 0.0271 µM
Second compound 1 µM
  IC50: 0.0281 µM
Second compound 3.16 µM
  IC50: 0.0291 µM
Second compound 10 µM
  IC50: 0.0269 µM
[1]
  viability, T/C: 102%
[2]
  viability, T/C: 86%
[3]
  viability, T/C: 44.1%
[4]
  viability, T/C: 37.4%
[5]
  viability, T/C: 40.7%
[6]
  viability, T/C: 35.3%
[7]
  viability, T/C: 102%
[8]
  viability, T/C: 78.4%
[9]
  viability, T/C: 43.5%
[10]
  viability, T/C: 39.4%
[11]
  viability, T/C: 35%
[12]
  viability, T/C: 36.3%
[13]
  viability, T/C: 102%
[14]
  viability, T/C: 81.4%
[15]
  viability, T/C: 45.2%
[16]
  viability, T/C: 38.3%
[17]
  viability, T/C: 37.5%
[18]
  viability, T/C: 39.2%
[19]
  viability, T/C: 96.8%
[20]
  viability, T/C: 87.5%
[21]
  viability, T/C: 45.7%
[22]
  viability, T/C: 40.6%
[23]
  viability, T/C: 40.1%
[24]
  viability, T/C: 40.5%
[25]
  viability, T/C: 101%
[26]
  viability, T/C: 85.2%
[27]
  viability, T/C: 47.2%
[28]
  viability, T/C: 44.6%
[29]
  viability, T/C: 45.3%
[30]
  viability, T/C: 40.9%
[31]
  viability, T/C: 99.5%
[32]
  viability, T/C: 66.7%
[33]
  viability, T/C: 46.7%
[34]
  viability, T/C: 43.1%
[35]
  viability, T/C: 52.2%
[36]
  viability, T/C: 46.8%

## Nc1ccn(C2OC(CO)C(O)C2(F)F)c(=O)n1 (stereo not drawn) + Nc1ccc(C#CCN(C(=O)Cc2ncc(C(F)(F)F)cc2C(F)(F)F)c2ccc(F)cc2)nn1
Second compound 0.0316 µM
  IC50: > 10 µM
Second compound 0.1 µM
  IC50: > 10 µM
Second compound 0.316 µM
  IC50: > 10 µM
Second compound 1 µM
  IC50: > 10 µM
Second compound 3.16 µM
  IC50: > 10 µM
Second compound 10 µM
  IC50: > 10 µM
[3]
  viability, T/C: 100%
[4]
  viability, T/C: 96.1%
[5]
  viability, T/C: 80.6%
[6]
  viability, T/C: 80.3%
[37]
  viability, T/C: 76.3%
[38]
  viability, T/C: 69.5%
[9]
  viability, T/C: 102%
[10]
  viability, T/C: 94%
[11]
  viability, T/C: 81%
[12]
  viability, T/C: 76.8%
[39]
  viability, T/C: 80.9%
[40]
  viability, T/C: 66.8%
[15]
  viability, T/C: 112%
[16]
  viability, T/C: 90.9%
[17]
  viability, T/C: 82.2%
[18]
  viability, T/C: 80.4%
[41]
  viability, T/C: 83.5%
[42]
  viability, T/C: 69.7%
[21]
  viability, T/C: 105%
[22]
  viability, T/C: 94.7%
[23]
  viability, T/C: 88.4%
[24]
  viability, T/C: 82.9%
[43]
  viability, T/C: 82.4%
[44]
  viability, T/C: 69.8%
[27]
  viability, T/C: 104%
[28]
  viability, T/C: 91.4%
[29]
  viability, T/C: 85.1%
[30]
  viability, T/C: 82.3%
[45]
  viability, T/C: 83.8%
[46]
  viability, T/C: 71.4%
[33]
  viability, T/C: 109%
[34]
  viability, T/C: 98.5%
[35]
  viability, T/C: 95.3%
[36]
  viability, T/C: 84.6%
[47]
  viability, T/C: 84.4%
[48]
  viability, T/C: 72.2%

## O=C(c1cc(Cc2n[nH]c(=O)c3ccccc23)ccc1F)N1CCN(C(=O)C2CC2)CC1 + Nc1ccc(C#CCN(C(=O)Cc2ncc(C(F)(F)F)cc2C(F)(F)F)c2ccc(F)cc2)nn1
Second compound 0.0316 µM
  IC50: > 10 µM
Second compound 0.1 µM
  IC50: > 10 µM
Second compound 0.316 µM
  IC50: > 10 µM
Second compound 1 µM
  IC50: > 10 µM
Second compound 3.16 µM
  IC50: > 10 µM
Second compound 10 µM
  IC50: > 10 µM
[3]
  viability, T/C: 105%
[4]
  viability, T/C: 116%
[5]
  viability, T/C: 106%
[6]
  viability, T/C: 105%
[37]
  viability, T/C: 111%
[38]
  viability, T/C: 104%
[9]
  viability, T/C: 108%
[10]
  viability, T/C: 104%
[11]
  viability, T/C: 102%
[12]
  viability, T/C: 102%
[39]
  viability, T/C: 110%
[40]
  viability, T/C: 105%
[15]
  viability, T/C: 117%
[16]
  viability, T/C: 105%
[17]
  viability, T/C: 101%
[18]
  viability, T/C: 112%
[41]
  viability, T/C: 111%
[42]
  viability, T/C: 95.6%
[21]
  viability, T/C: 110%
[22]
  viability, T/C: 102%
[23]
  viability, T/C: 97.3%
[24]
  viability, T/C: 104%
[43]
  viability, T/C: 114%
[44]
  viability, T/C: 106%
[27]
  viability, T/C: 116%
[28]
  viability, T/C: 104%
[29]
  viability, T/C: 103%
[30]
  viability, T/C: 105%
[45]
  viability, T/C: 106%
[46]
  viability, T/C: 113%
[33]
  viability, T/C: 107%
[34]
  viability, T/C: 111%
[35]
  viability, T/C: 110%
[36]
  viability, T/C: 103%
[47]
  viability, T/C: 110%
[48]
  viability, T/C: 110%
